US10968462B2, “Plants having increased tolerance to herbicides” (BASF AGRO B.V., priority 2013, dated 2021)

Assays:
Format in all cases: biochemical, Amaranthus tuberculatum
[1] = biological target: wild type and amino acid substituted PPO enzyme (PPO2) of SEQ ID NO: 2 (AMARE) (Amaranthus tuberculatus, UniProt Q0NZW9, F204I/T208S, form not given)
[2] = biological target: wild type and amino acid substituted PPO enzyme (PPO2) of SEQ ID NO: 2 (AMARE) (Amaranthus tuberculatus, UniProt Q0NZW9, F204I/F457M, form not given)
[3] = biological target: wild type and amino acid substituted PPO enzyme (PPO2) of SEQ ID NO: 2 (AMARE) (Amaranthus tuberculatus, UniProt Q0NZW9, R128A/L397D, form not given)
[4] = biological target: wild type and amino acid substituted PPO enzyme (PPO2) of SEQ ID NO: 2 (AMARE)
[5] = biological target: wild type and amino acid substituted PPO enzyme (PPO2) of SEQ ID NO: 2 (AMARE) (Amaranthus tuberculatus, UniProt Q0NZW9, R128L, form not given)

Compound | IC50 [1] [nM] | IC50 [2] [nM] | IC50 [3] [nM] | IC50 [4] [nM] | IC50 [5] [nM]
C#CCN1C(=O)C(F)(F)Oc2cc(F)c(-n3c(=O)n(C)c(=S)n(C)c3=O)cc21 [1,5-dimethyl-6-thioxo-3-(2,2,7-trifluoro-3-oxo-4-(prop-2-yny] [reference compound] | 0.129 | 0.0752 | 5.9 | 246 | –
CC(C)N(C)S(=O)(=O)NC(=O)c1cc(-n2c(=O)cc(C(F)(F)F)n(C)c2=O)c(F)cc1Cl [Saflufenacil, saflufenacil] | 0.0589 | 0.0189 | – | – | 222
